“Also recorded” adds a separate entry of the source.
Assays:
[1] = tested on: glioma cell line U87; test: MTT assay in 3-dimentional tumor model (HuBiogel) derived from glioma cell line U87; assay type: cell-based
Procedure: (§1) The compound sodium trans-[tetrachlorobis(1H-indazole)ruthenate(III)] was tested in a 3-dimentional tumor model derived from glioma cell line U87. Specifically, cells were trypsinized, washed, counted by trypan blue exclusion. Tumor beads were then prepared by mixing 20,000 cells/10 μl of HuBiogel (4 mg/mL) (See U.S. patent application Ser. No. 10/546,506, which is incorporated herein by reference). The 3-D tumor beads were cultivated for 72 hours in multi-well plates with complete media (10% FBS) in a 37° C. incubator +5% CO2. Mini-tumors were treated with various concentrations of the test compound sodium trans-[tetrachlorobis(1H-indazole)ruthenate(III)] in media (final 0.2-0.3% DMSO) or control (DMSO). Repeated drug treatment was done by removing the culture media and replacing with fresh media with drug compound or DMSO. On Day 3, MTT assay and live-cell staining with Calcein AM were performed (5 beads/assay set).
(§2) Statistical analysis of data sets (Average, T-test, GI-50) was performed using MS-Excel program. […] See e.g., Bowles et al., J. Neurosurg., 73:248-253 (1990).

[2] = tested on: glioma cell line U87; test: Live-cell staining with Calcein AM / image analysis in 3-D HuBiogel tumor beads; assay type: cell-based; settings: 3-D HuBiogel tumor beads from U87, Calcein AM, Day 3
Procedure: as §1, §2

[3] = tested on: U87 cell line; settings: Bowles et al., J. Neurosurg., 73:248-253 (1990); cited from earlier work

Structure (SMILES): [Cl][Ru-]([Cl])([Cl])[Cl].[Na+].c1ccc2[nH]ncc2c1.c1ccc2[nH]ncc2c1 [sodium trans-[tetrachlorobis(1H-indazole)ruthenate(III)]]
- tumor proliferation activity / growth inhibition (MTT assay) ([1]; 3-D HuBiogel tumor beads from U87, Day 3, FIG. 1): dose-dependent growth inhibition; also recorded: significantly inhibited tumor proliferation activity
- GI50 ([1]; 3-D HuBiogel tumor beads from U87, MTT assay on Day 3, read-out: average GI-50 (the drug concentration required for growth inhibition at 50%)): 95 µM
- tumor killing in live-cell staining/image analysis [2]: dose-dependent tumor killing effective

Structure (SMILES): O=NN(CCCl)C(=O)NCCCl [BCNU, bis-chloronitrosourea]
- resistance of U87 cell line to drug [3]: relatively resistant
